Assay results: patent US20090105305A1, “Therapeutic Agents - 550” (AstraZeneca AB, priority 2006, published 2009)

Each compound was assayed against T1, human Fatty Acid Synthase (Homo sapiens, UniProt P49327) (assay: Human FAS enzyme assay (decrease in NADPH fluorescence)). Settings: % inhibition at a concentration of 100 micromolar.
T1 construct: made in house
Type: biochemical
Procedure, shortened: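 Readout: decrease in NADPH fluorescence (340 nm ex, 460 nm em) after 60 min at RT, background-subtracted against a read taken before substrate. Substrate mix contained 500 μM malonyl-CoA and 150 μM acetyl-CoA. It was added after 15 min enzyme (0.4 μg in-house human FAS)–compound–NADPH preincubation in Tris pH 7.5 buffer; % inhibition was fitted to IC50.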

T1 sequence (P49327 whole entry): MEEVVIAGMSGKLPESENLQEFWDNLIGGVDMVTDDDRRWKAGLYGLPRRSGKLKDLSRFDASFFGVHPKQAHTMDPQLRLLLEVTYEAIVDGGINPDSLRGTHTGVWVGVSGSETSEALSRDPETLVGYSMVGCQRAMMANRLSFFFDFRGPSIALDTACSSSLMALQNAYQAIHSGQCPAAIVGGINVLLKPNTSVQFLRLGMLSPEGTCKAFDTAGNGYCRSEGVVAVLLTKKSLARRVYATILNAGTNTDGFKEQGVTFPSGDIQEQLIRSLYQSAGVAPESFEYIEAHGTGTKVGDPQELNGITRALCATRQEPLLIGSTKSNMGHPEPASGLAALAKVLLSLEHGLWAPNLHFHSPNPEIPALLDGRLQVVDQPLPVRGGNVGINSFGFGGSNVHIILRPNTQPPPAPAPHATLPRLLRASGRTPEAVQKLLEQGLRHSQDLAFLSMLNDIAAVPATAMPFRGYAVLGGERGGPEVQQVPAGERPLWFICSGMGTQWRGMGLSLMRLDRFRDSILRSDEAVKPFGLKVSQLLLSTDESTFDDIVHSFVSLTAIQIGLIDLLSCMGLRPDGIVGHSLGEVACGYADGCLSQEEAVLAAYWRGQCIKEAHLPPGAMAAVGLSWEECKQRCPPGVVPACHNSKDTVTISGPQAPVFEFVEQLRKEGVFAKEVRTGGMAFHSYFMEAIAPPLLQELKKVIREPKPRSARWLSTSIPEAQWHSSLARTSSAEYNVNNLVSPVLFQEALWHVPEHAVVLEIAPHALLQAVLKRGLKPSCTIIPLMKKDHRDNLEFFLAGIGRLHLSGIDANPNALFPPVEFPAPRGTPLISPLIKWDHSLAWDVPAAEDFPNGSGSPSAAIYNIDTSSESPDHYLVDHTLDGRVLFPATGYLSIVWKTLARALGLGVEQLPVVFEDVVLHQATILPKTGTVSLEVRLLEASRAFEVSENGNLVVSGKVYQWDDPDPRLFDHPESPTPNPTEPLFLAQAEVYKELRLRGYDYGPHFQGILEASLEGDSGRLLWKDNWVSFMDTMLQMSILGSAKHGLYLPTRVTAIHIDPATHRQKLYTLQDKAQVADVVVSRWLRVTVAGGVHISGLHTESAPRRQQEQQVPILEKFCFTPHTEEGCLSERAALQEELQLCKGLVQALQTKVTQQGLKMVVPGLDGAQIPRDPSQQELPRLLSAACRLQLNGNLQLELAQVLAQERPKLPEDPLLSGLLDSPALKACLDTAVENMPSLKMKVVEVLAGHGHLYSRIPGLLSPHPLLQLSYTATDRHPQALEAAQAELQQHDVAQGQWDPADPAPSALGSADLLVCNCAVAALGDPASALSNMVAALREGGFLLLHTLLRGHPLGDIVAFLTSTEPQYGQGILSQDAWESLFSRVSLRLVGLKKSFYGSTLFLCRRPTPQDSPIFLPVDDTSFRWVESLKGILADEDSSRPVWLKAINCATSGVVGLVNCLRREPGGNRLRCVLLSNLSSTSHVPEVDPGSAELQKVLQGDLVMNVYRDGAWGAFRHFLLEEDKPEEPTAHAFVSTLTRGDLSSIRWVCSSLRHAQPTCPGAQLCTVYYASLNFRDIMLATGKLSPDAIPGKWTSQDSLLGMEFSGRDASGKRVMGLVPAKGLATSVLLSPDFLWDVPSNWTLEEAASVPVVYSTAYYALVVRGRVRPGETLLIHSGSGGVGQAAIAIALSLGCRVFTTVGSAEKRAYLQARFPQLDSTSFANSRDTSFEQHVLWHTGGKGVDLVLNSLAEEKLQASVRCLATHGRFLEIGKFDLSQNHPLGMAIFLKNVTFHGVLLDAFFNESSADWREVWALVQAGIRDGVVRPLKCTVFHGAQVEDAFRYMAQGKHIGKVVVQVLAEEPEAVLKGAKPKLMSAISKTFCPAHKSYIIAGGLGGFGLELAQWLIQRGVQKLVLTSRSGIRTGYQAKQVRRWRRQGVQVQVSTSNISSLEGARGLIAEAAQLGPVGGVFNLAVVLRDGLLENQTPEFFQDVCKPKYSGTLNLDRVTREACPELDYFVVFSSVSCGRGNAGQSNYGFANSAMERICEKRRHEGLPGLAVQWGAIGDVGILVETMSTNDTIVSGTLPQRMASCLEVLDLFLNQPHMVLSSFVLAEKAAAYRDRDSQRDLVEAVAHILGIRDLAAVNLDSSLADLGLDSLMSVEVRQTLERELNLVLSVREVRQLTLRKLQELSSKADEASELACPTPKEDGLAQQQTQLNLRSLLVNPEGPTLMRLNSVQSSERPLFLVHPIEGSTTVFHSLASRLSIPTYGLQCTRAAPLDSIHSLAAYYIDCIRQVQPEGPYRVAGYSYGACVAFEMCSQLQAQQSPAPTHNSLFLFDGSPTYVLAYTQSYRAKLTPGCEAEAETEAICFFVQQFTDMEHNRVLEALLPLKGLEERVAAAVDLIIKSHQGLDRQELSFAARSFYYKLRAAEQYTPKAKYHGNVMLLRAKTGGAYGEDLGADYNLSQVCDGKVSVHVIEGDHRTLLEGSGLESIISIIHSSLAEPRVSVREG

**Q.** Which inhibition at 100 µM does the source give for `Cc1ccc(C(=O)N2CCC(c3ccc(C#N)cc3)CC2)cc1NS(=O)(=O)c1ccccc1C(N)=O` [Example 113, 2-[[5-[4-(4-cyanophenyl)piperidine-1-carbonyl]-2-methyl-phenyl]sulfamoyl]benzamide] here?
**A.** The inhibition at 100 µM was 77%.

**Q.** With `CCCCS(=O)(=O)Nc1ccc(C)c(C(=O)N2CCC(c3ccc(C#N)cc3)CC2)c1` [Example 37, N-[3-[4-(4-cyanophenyl)piperidine-1-carbonyl]-4-methyl-phenyl]butane-1-sulfonamide] as the compound, how does the inhibition at 100 µM read?
**A.** Its inhibition at 100 µM is 91%.

**Q.** How did the inhibition at 100 µM turn out when `Cc1ccc(NS(=O)(=O)C2CC2)cc1C(=O)N1CCC(c2ccc(C#N)cc2)CC1` [Example 40, N-[3-[4-(4-cyanophenyl)piperidine-1-carbonyl]-4-methyl-phenyl]cyclopropanesulfonamide] was run?
**A.** The inhibition at 100 µM was 89%.

**Q.** `Cc1ccc(C(=O)N2CCC(c3ccc(C#N)cc3)CC2)cc1NS(=O)(=O)CC(F)(F)F` [Example 60, N-[5-[4-(4-cyanophenyl)piperidine-1-carbonyl]-2-methyl-phenyl]-2,2,2-trifluoro-ethanesulfonamide] was tested. Which inhibition at 100 µM did it give?
**A.** The inhibition at 100 µM was 83%.

**Q.** For `Cc1ccc(C(=O)N2CCC(c3ccc(C#N)cc3)CC2)cc1NS(=O)(=O)CCCN` [Example 126, 3-amino-N-[5-[4-(4-cyanophenyl)piperidine-1-carbonyl]-2-methyl-phenyl]propane-1-sulfonamide], which inhibition at 100 µM is on record?
**A.** Its inhibition at 100 µM is 87%.

**Q.** Which inhibition at 100 µM does the source give for `Cc1ccc(NS(C)(=O)=O)cc1C(=O)N1CCC(c2ccc(C#N)cc2)CC1` [Example 7, N-[3-[4-(4-cyanophenyl)piperidine-1-carbonyl]-4-methyl-phenyl]methanesulfonamide] here?
**A.** The inhibition at 100 µM was 78%.

**Q.** With `Cc1cc(C)c(C(=O)N2CCC(c3ccc(C#N)cc3)CC2)cc1NS(=O)(=O)C1CC1` [Example 116, N-[5-[4-(4-cyanophenyl)piperidine-1-carbonyl]-2,4-dimethyl-phenyl]cyclopropanesulfonamide] as the compound, how does the inhibition at 100 µM read?
**A.** The inhibition at 100 µM was 92%.

**Q.** With `Cc1ccc(C(=O)N2CCC(c3ccc(C#N)cc3)CC2)cc1NS(=O)(=O)c1ccc(Cl)cc1` [Example 3, 4-chloro-N-[5-[4-(4-cyanophenyl)piperidine-1-carbonyl]-2-methyl-phenyl]benzenesulfonamide] as the compound, how does the inhibition at 100 µM read?
**A.** The inhibition at 100 µM was 96%.

**Q.** For `COc1cc(C2CCN(C(=O)c3ccc(C)c(NS(C)(=O)=O)c3)CC2)ccc1C#N` [Example 178, N-[5-[4-(4-cyano-3-methoxyphenyl)piperidine-1-carbonyl]-2-methylphenyl]methanesulfonamide], which inhibition at 100 µM is on record?
**A.** The inhibition at 100 µM was 81%.

**Q.** Which inhibition at 100 µM does the source give for `Cc1ccc(C(=O)N2CCC(c3ccc(C#N)cc3)CC2)cc1NS(=O)(=O)CC1(C)NC(=O)NC1=O` (stereo in doubt) [Example 147, N-[5-[4-(4-cyanophenyl)piperidine-1-carbonyl]-2-methyl-phenyl]-1-[(4R)-4-methyl-2,5-dioxo-imidazolidin-4-yl]methanesulfonamide] here?
**A.** Its inhibition at 100 µM is 98%.

**Q.** Which inhibition at 100 µM does the source give for `Cc1ccc(C(=O)N2CCC(c3ccc(S(=O)(=O)NCCO)cc3)CC2)cc1NS(C)(=O)=O` [Example 220, N-(2-hydroxyethyl)-4-[1-(3-methanesulfonamido-4-methylbenzoyl)piperidin-4-yl]benzenesulfonamide] here?
**A.** The inhibition at 100 µM was 85%.

**Q.** `Cc1ccc(C(=O)N2CCC(c3ccc(F)cc3)CC2)cc1NS(C)(=O)=O` [Example 213, N-[5-[4-(4-fluorophenyl)piperidine-1-carbonyl]-2-methylphenyl]methanesulfonamide] was tested. Which inhibition at 100 µM did it give?
**A.** The inhibition at 100 µM was 71%.

**Q.** Which inhibition at 100 µM does the source give for `N#Cc1ccc(C2CCN(C(=O)c3ccc(F)c(NS(=O)(=O)Cc4ccccc4)c3)CC2)cc1` [Example 194, N-[5-[4-(4-cyanophenyl)piperidine-1-carbonyl]-2-fluorophenyl]-1-phenylmethane-sulfonamide] here?
**A.** Its inhibition at 100 µM is 69%.

**Q.** How did the inhibition at 100 µM turn out when `Cc1ccc(NS(=O)(=O)c2ccccc2C#N)cc1C(=O)N1CCC(c2ccc(C#N)cc2)CC1` [Example 46, 2-cyano-N-[3-[4-(4-cyanophenyl)piperidine-1-carbonyl]-4-methyl-phenyl]benzenesulfonamide] was run?
**A.** The inhibition at 100 µM was 79%.

**Q.** How did the inhibition at 100 µM turn out when `Cc1ccc(C(=O)N2CCC(c3ccc(-c4nccs4)cc3)CC2)cc1NS(C)(=O)=O` [Example 170, N-[2-methyl-5-[4-[4-(1,3-thiazol-2-yl)phenyl]piperidine-1-carbonyl]phenyl]methanesulfonamide] was run?
**A.** Its inhibition at 100 µM is 74%.

**Q.** For `Cc1ccc(C(=O)N2CCC(c3ccc(CNS(C)(=O)=O)cc3)CC2)cc1NS(C)(=O)=O` [Example 163, N-[[4-[1-(3-methanesulfonamido-4-methylbenzoyl)piperidin-4-yl]phenyl]methyl]methanesulfonamide], which inhibition at 100 µM is on record?
**A.** Its inhibition at 100 µM is 85%.

**Q.** Which inhibition at 100 µM does the source give for `Cc1ccc(C(=O)N2CCC(c3ccc(C#N)cc3)CC2)cc1NS(=O)(=O)CCCNC(=O)c1ccccc1` [Example 133, N-[3-[[5-[4-(4-cyanophenyl)piperidine-1-carbonyl]-2-methyl-phenyl]sulfamoyl]propyl]benzamide] here?
**A.** Its inhibition at 100 µM is 91%.

**Q.** Which inhibition at 100 µM does the source give for `Cc1ccc(C(=O)N2CCC(c3ccc(C#N)cc3)CC2)cc1NS(=O)(=O)c1c(C)nn(C)c1C` [Example 152, N-[5-[4-(4-cyanophenyl)piperidine-1-carbonyl]-2-methyl-phenyl]-1,3,5-trimethyl-pyrazole-4-sulfonamide] here?
**A.** Its inhibition at 100 µM is 87%.

**Q.** For `N#Cc1ccc(C2CCN(C(=O)c3ccc(C#N)c(NS(=O)(=O)Cc4ccccc4)c3)CC2)cc1` [Example 196, N-[2-cyano-5-[4-(4-cyanophenyl)piperidine-1-carbonyl]phenyl]-1-phenylmethane-sulfonamide], which inhibition at 100 µM is on record?
**A.** Its inhibition at 100 µM is 96%.

**Q.** How did the inhibition at 100 µM turn out when `CCS(=O)(=O)NCc1ccc(C2CCN(C(=O)c3ccc(C)c(NS(C)(=O)=O)c3)CC2)cc1` [Example 227, N-[[4-[1-(3-methanesulfonamido-4-methylbenzoyl)piperidin-4-yl]phenyl]methyl]ethanesulfonamide] was run?
**A.** Its inhibition at 100 µM is 87.4%.

**Q.** Which inhibition at 100 µM does the source give for `Cc1ccc(C(=O)N2CCC(c3ccc(C#N)cc3)CC2)cc1NS(=O)(=O)C1CCS(=O)(=O)C1` (stereo not shown) [Example 127, N-[5-[4-(4-cyanophenyl)piperidine-1-carbonyl]-2-methyl-phenyl]-1,1-dioxo-thiolane-3-sulfonamide] here?
**A.** The inhibition at 100 µM was 92%.

**Q.** For `Cc1ccc(NS(=O)(=O)CCCCl)cc1C(=O)N1CCC(c2ccc(C#N)cc2)CC1` [Example 34, 3-chloro-N-[3-[4-(4-cyanophenyl)piperidine-1-carbonyl]-4-methyl-phenyl]propane-1-sulfonamide], which inhibition at 100 µM is on record?
**A.** The inhibition at 100 µM was 89%.

**Q.** Which inhibition at 100 µM does the source give for `CC(=O)N1CCC(S(=O)(=O)Nc2cc(C(=O)N3CCC(c4ccc(C#N)cc4)CC3)ccc2C)CC1` [Example 118, 1-acetyl-N-[5-[4-(4-cyanophenyl)piperidine-1-carbonyl]-2-methyl-phenyl]piperidine-4-sulfonamide] here?
**A.** Its inhibition at 100 µM is 85%.

**Q.** How did the inhibition at 100 µM turn out when `CCCS(=O)(=O)Nc1ccc(C)c(C(=O)N2CCC(c3ccc(C#N)cc3)CC2)c1` [Example 33, N-[3-[4-(4-cyanophenyl)piperidine-1-carbonyl]-4-methyl-phenyl]propane-1-sulfonamide] was run?
**A.** The inhibition at 100 µM was 91%.

**Q.** `CCCC(C)S(=O)(=O)Nc1cc(C(=O)N2CCC(c3ccc(C#N)cc3)CC2)ccc1C` (stereo not shown) [Example 63, N-[5-[4-(4-cyanophenyl)piperidine-1-carbonyl]-2-methyl-phenyl]pentane-2-sulfonamide] was tested. Which inhibition at 100 µM did it give?
**A.** Its inhibition at 100 µM is 85%.

**Q.** How did the inhibition at 100 µM turn out when `Cc1ccc(C(=O)N2CCC(c3ccc(Cl)cc3)CC2)cc1NS(C)(=O)=O` [Example 155, N-[5-[4-(4-chlorophenyl)piperidine-1-carbonyl]-2-methyl-phenyl]methanesulfonamide] was run?
**A.** The inhibition at 100 µM was 84%.

**Q.** With `Cc1ccc(C(=O)N2CCC(c3ccc(C#N)cc3)CC2)cc1NS(=O)(=O)CCNS(C)(=O)=O` [Example 77, N-[5-[4-(4-cyanophenyl)piperidine-1-carbonyl]-2-methyl-phenyl]-2-methanesulfonamido-ethanesulfonamide] as the compound, how does the inhibition at 100 µM read?
**A.** Its inhibition at 100 µM is 98%.

**Q.** With `CNC(=O)c1cccc(S(=O)(=O)Nc2cc(C(=O)N3CCC(c4ccc(C#N)cc4)CC3)ccc2C)c1` [Example 83, 3-[[5-[4-(4-cyanophenyl)piperidine-1-carbonyl]-2-methyl-phenyl]sulfamoyl]-N-methyl-benzamide] as the compound, how does the inhibition at 100 µM read?
**A.** Its inhibition at 100 µM is 98%.

**Q.** How did the inhibition at 100 µM turn out when `Cc1ccc(C(=O)N2CCC(c3ccc(CO)cc3)CC2)cc1NS(C)(=O)=O` [Example 165, N-[5-[4-[4-(hydroxymethyl)phenyl]piperidine-1-carbonyl]-2-methylphenyl]methanesulfonamide] was run?
**A.** Its inhibition at 100 µM is 76%.

**Q.** How did the inhibition at 100 µM turn out when `Cc1ccc(C(=O)N2CCC(c3ccc(C(F)(F)F)cc3)CC2)cc1NS(C)(=O)=O` [Example 157, N-[2-methyl-5-[4-[4-(trifluoromethyl)phenyl]piperidine-1-carbonyl]phenyl]methanesulfonamide] was run?
**A.** The inhibition at 100 µM was 78%.

Same assay, conditions: compounds excluded from the claims by proviso

**Q.** Which “IC50s in the range of about 0.001 μM to about 30 μM” value (“IC50s in the range” below) does the source give for `CNC(=O)c1ccccc1S(=O)(=O)Nc1cc(C(=O)N2CCC(c3ccc(C#N)cc3)CC2)ccc1C` [2-[[5-[4-(4-cyanophenyl)piperidine-1-carbonyl]-2-methylphenyl]sulfamoyl]-N-methylbenzamide] here?
**A.** The value was “do not have IC50s in the range of about 0.001 μM to about 30 μM”.

**Q.** How did the “IC50s in the range” value turn out when `Cc1ccc(C(=O)N2CCC(c3ccc(-c4ncccn4)cc3)CC2)cc1NS(C)(=O)=O` [N-[2-methyl-5-[4-(4-pyrimidin-2-ylphenyl)piperidine-1-carbonyl]phenyl]methanesulfonamide] was run?
**A.** Its value is “do not have IC50s in the range of about 0.001 μM to about 30 μM”.

**Q.** For `CS(=O)(=O)Cc1ccc(C(=O)N2CCC(c3ccc(C#N)cc3)CC2)cc1NS(C)(=O)=O` [N-[5-[4-(4-cyanophenyl)piperidine-1-carbonyl]-2-(methylsulfonylmethyl)phenyl]methanesulfonamide], which “IC50s in the range” value is on record?
**A.** Its value is “do not have IC50s in the range of about 0.001 μM to about 30 μM”.

**Q.** How did the “IC50s in the range” value turn out when `Cc1ccc(C(=O)N2CCC(O)(c3cccc(C(F)(F)F)c3)CC2)cc1NS(C)(=O)=O` [N-[5-[4-hydroxy-4-[3-(trifluoromethyl)phenyl]piperidine-1-carbonyl]-2-methylphenyl]methanesulfonamide] was run?
**A.** The value was “do not have IC50s in the range of about 0.001 μM to about 30 μM”.
